# Reference: paper PMC6276031 (International Journal of Neuropsychopharmacology, 2018)
# Experiments:
# [1] = molecular target: T1, dopamine D2 receptor (D2R, D2L long isoform) (Homo sapiens, UniProt P14416); experiment: cell-based; conditions: read-out: % of the mean response to 1 μM dopamine
# [2] = molecular target: T1, dopamine D2 receptor (D2R, D2L long isoform); experiment: GIRK1/[…] current activation in Xenopus oocytes; format: cell-based
# [3] = molecular target: dopamine D3 receptor (D3R) (Homo sapiens, UniProt P35462); experiment: GIRK1/[…] current activation in Xenopus oocytes expressing D3R; format: cell-based
# Sequence of dopamine D3 receptor (D3R) (P35462 whole entry): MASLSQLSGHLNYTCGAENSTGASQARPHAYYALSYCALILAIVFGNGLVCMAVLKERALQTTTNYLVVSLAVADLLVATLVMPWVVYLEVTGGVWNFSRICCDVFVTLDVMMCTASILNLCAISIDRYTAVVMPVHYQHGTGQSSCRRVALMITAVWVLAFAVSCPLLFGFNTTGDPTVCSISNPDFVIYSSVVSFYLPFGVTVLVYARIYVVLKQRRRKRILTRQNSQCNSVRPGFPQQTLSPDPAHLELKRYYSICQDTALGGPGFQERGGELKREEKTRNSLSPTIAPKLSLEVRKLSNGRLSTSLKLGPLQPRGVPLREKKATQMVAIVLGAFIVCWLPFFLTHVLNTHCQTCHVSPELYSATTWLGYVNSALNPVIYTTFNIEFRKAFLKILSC
# T1 sequence (P14416 whole entry, canonical isoform): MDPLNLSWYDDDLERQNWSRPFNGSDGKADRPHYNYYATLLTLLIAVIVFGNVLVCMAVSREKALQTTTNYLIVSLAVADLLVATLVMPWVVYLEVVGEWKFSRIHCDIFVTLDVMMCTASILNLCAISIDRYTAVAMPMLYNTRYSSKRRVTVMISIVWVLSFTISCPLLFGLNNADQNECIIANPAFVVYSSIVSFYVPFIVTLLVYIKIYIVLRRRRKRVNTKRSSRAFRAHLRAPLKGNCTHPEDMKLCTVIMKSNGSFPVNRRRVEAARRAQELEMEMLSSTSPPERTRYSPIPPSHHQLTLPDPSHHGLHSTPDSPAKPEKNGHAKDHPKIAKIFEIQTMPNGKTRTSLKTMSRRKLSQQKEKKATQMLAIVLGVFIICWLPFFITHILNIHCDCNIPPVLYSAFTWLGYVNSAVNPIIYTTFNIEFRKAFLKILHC
SMILES,Emax [1] [%],EC50 [2] [nM],EC50 [3] [nM]
CCCN1CCC[C@@H](c2cccc(O)c2)C1 [(-)-3-PPP],27.7 ± 7.5,,
Clc1cccc(C2CCN(CCCOc3ccc4scnc4c3)CC2)c1Cl [UNC9994],,185,62.1
